Measured values from US5428020A, “Cysteine (NPYS)-containing peptides and use thereof for inhibiting platelet aggregation” (Matsueda; Rei, priority 1994, dated 1995).
* marks the point of attachment. Npys = O=[N+]([O-])c1cccnc1S*

Tests used:
papain = molecular target: T1, papain (Carica papaya, UniProt P00784); conditions: Teno et al., Int. J. Peptide Protein Res. 30, 93-98 (1987); cited from earlier work
T1 sequence (P00784 134-345): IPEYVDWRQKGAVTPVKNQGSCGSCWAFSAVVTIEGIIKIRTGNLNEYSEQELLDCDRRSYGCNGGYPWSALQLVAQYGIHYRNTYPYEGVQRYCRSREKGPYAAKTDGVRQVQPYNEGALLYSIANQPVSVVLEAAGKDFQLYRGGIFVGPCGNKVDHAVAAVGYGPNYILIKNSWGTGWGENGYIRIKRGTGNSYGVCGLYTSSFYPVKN

calpain = experiment: Calpain inhibition, fluorogenic substrate succinyl-Leu-Tyr-amino-4-methylcumarin; assay type: biochemical; conditions: 90 mM calpain; 1 mM substrate; 25° C.; pH 7.5; 5 mM CaCl2; read-out: Calpain Inhibitory Potency IC50
Protocol: 77, 1565 (1986). A calpain preparation (5~10 μl) was placed on a floating filter membrane (Marusyk et al., Anal. Biochem. 105, 403 (1980)) (Millipore type VMWP) over a buffer containing 50 mM Tris/HCl, pH 7.5 and 2.5 mM EDTA for 45-60 minutes, carefully removed and used for the following inhibition study. Aliquots (25 μl) of the enzyme (calpain) and buffer or synthetic peptide were added to a cuvette at 25° C. containing 1 mM succinyl-Leu-Tyr-amino-4-methylcumarin as the substrate in a buffer consisting of 60 mM Tris/HCl, pH 7.5, 2.5% DMSO and 5 mM CaCl2. The rate of substrate hydrolysis was continuously recorded on a Perkin-Elmer LS-5 fluorescence spectrophotometer connected to a R100 chart recorder. […] The IC50 was calculated from the dose-dependent curve for each inhibitor. The IC50 corresponds to that concentration of inhibitory peptide that produced 50% inhibition of calpain activity. In all cases, […] was utilized.

human platelets = experiment: Inhibition of agonist-induced aggregation of washed human platelets (aggregometer); assay type: cell-based; parameters: key to Inhibition of platelet aggregation, PMA / Inhibition of platelet aggregation, Thrombin / Inhibition of platelet aggregation, Plasmin / Inhibition of platelet aggregation, ADP / Inhibition of platelet aggregation, Collagen / Inhibition of platelet aggregation, U46619 / Inhibition of platelet aggregation, A23187: "+" indicates inhibition of platelet aggregation; "-" indicates the absence of inhibition of platelet aggregation; "partial" indicates a partial inhibition of platelet aggregation; conditions: for Inhibition of platelet aggregation, A23187: agonist A23187 2.5 uM; for Inhibition of platelet aggregation, A23187 / Inhibition of platelet aggregation, ADP / Inhibition of platelet aggregation, PMA / Inhibition of platelet aggregation, U46619 / Inhibition of platelet aggregation, Collagen / Inhibition of platelet aggregation, Plasmin / Inhibition of platelet aggregation, Thrombin: inhibitor peptide 0.8 nm, 37° C.; for Inhibition of platelet aggregation, ADP: agonist ADP 20 uM; for Inhibition of platelet aggregation, PMA: agonist PMA 0.016 uM; for Inhibition of platelet aggregation, U46619: agonist U46619 1 uM; for Inhibition of platelet aggregation, Collagen: agonist collagen 4 ug/ml; for Inhibition of platelet aggregation, Plasmin: agonist plasmin 0.025 uM; for Inhibition of platelet aggregation, Thrombin: agonist thrombin 0.02 uM
Protocol: Platelet-rich plasma was prepared by differential centrifugation (120×g, 30 min, 23° C.) of fresh whole human blood drawn into acid/citrate/dextrose (citric acid 0.079 M, sodium citrate, 0.085 M and dextrose 0.180 M) in a ratio of 1 ml of anticoagulant solution per 9 ml of blood. The platelets were washed and their suspensions prepared by a modification of the method of Mustard, et al., Brit. J. Haemat. 22, 193-204 (1972). The modifications included incubation of platelet-rich plasma with prostaglandin E1, hirudin and apyrase and two successive washes of the platelets with Tyrode-albumin buffer (without Ca^++) containing hirudin and apyrase, and apyrase alone. Platelet aggregation in the presence of each agonist and inhibitor peptide (0.8 nm) was performed at 37° C. under constant stirring (1100 rpm) conditions in a chronolog (Lumi) aggregometer. The total volume of the incubation mixture in the sample cuvette was 500 μl and the platelet concentration was adjusted to 5×10^8 /ml. The reference cuvette contained the suspension buffer. Platelet aggregation was initiated by the addition of the agonist to the sample cuvette. The data is indicated in the following table wherein "+" indicates inhibition of platelet aggregation, "-" indicates the absence of inhibition of platelet aggregation, and "partial" indicates a partial inhibition of platelet aggregation.

thrombin [1] = molecular target: T2, thrombin (Homo sapiens, UniProt P00734); experiment: Amidolytic activity of thrombin; assay type: biochemical
thrombin [2] = molecular target: T2, thrombin; experiment: Fibrinogenolytic activity of thrombin; assay type: biochemical
aggregen = experiment: Thrombin- and plasmin-induced cleavage of labeled aggregen in intact radiolabeled platelets; assay type: cell-based, human
platelets [3] = experiment: Platelet shape change induced by thrombin and plasmin; assay type: cell-based, human
plasmin = plasmin (Homo sapiens, UniProt P00747); experiment: Amidolytic activity of plasmin; assay type: biochemical
Chain of plasmin (P00747 581-810 limits assumed, species assumed): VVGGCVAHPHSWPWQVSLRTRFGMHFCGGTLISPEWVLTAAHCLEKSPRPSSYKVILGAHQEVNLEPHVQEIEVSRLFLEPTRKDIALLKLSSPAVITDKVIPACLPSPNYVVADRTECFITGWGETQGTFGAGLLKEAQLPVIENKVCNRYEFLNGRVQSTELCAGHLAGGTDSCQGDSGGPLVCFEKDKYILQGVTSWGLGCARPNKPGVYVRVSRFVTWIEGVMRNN
Chain of plasmin (P00747 97-580 partner limits assumed, species assumed): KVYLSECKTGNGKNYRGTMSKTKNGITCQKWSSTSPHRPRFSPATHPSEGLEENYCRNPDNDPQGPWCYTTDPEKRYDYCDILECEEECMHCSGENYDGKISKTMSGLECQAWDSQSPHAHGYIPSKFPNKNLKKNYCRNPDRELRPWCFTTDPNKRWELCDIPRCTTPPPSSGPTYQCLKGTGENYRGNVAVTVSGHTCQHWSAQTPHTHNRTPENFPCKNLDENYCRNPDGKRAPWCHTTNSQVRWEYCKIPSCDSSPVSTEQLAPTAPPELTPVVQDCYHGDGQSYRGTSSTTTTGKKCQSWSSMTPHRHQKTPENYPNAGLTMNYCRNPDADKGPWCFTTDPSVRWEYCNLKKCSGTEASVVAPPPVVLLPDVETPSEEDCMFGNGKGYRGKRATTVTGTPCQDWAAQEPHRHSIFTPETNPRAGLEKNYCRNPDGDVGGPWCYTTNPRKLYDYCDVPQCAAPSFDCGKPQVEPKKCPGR

platelets [4] = experiment: Platelet cAMP levels; assay type: cell-based, human

Row | Substance | activity in inhibiting the thiol protease papain (papain) | IC50 (calpain) [µM] | Inhibition of platelet aggregation, A23187 (human platelets) | Inhibition of platelet aggregation, ADP (human platelets) | Inhibition of platelet aggregation, PMA (human platelets) | Inhibition of platelet aggregation, U46619 (human platelets) | Inhibition of platelet aggregation, Collagen (human platelets) | Inhibition of platelet aggregation, Plasmin (human platelets) | Inhibition of platelet aggregation, Thrombin (human platelets) | inhibition of amidolytic activity of thrombin (thrombin [1]) | inhibition of fibrinogenolytic activity of thrombin (thrombin [2]) | thrombin- and plasmin induced cleavage of [^3 H]-5'-p-fluorosulfonylbenzoyl adenosine-labeled aggregen (aggregen) | effect on platelet shape change introduced by thrombin and plasmin (platelets [3]) | inhibition of amidolytic activity of plasmin (plasmin) | aggregation induced by any of the other agonists tested (human platelets; agonists other than thrombin and plasmin) | platelet-cAMP levels (platelets [4])
1 | Gln-Val-Val-Ala-Gly (QVVAG; printed: Gln-Val-Val-Ala-Gly) [QVAAG, pentapeptide of kininogen D2 and D3 repeats] | weak activity |  |  |  |  |  |  |  |  |  |  |  |  |  |  | 
2 | TFA.H-Ala-Gln-Val-Val-CYs (NpyS)-GlY-NH2 (H-AQVV-{Cys(NpyS)-Gly-NH2}; also: TFA salt) [Example 4] |  | 16 | partial | + | + | + | + | + | + |  |  |  |  |  |  | 
3 | TFA.H-Arg-Gln-Val-Val-Cys(NPYS)-GlY-NH2 (H-RQVVC(Npys)G-NH2; also: TFA salt) [Example 3] |  | 55 | partial | + | + | + | + | + | + |  |  |  |  |  |  | 
4 | TFA.H-Gln-Val-Val-Cys(NpyS)-Gly-NH2 (H-QVVC(Npys)G-NH2; also: TFA salt) [Example 5] |  | 36 | partial | + | + | + | + | + | + |  |  |  |  |  |  | 
5 | TFA.H-Phe-Gln-Leu-Val-Cys(NpyS)-Gly-NH2 (H-FQLVC(Npys)G-NH2; also: TFA salt) [Example 2] |  | 5.6 | partial | partial | partial | partial | partial | + | + |  |  |  |  |  |  | 
6 | TFA.H-Phe-Gln-Val-Val-Cys(NpyS)-Gly-NH2 (H-FQVVC(Npys)G-NH2; also: TFA salt) [Example 1] |  | 4.1 | - | - | - | - | - | + | + | did not inhibit | did not inhibit | completely inhibited | no effect | did not inhibit | did not inhibit | did not raise
